Data set [1] deals with T1, recombinant human Meningioma Expressed Antigen 5 (MGEA5), also referred to as O-GcNAcase (OGA) (Homo sapiens, UniProt O60502).
T1 construct: Full length OGA enzyme was purchased at OnGene (cat #TP322411); purchased OnGene (so in the source)
T1 sequence (O60502 1-916): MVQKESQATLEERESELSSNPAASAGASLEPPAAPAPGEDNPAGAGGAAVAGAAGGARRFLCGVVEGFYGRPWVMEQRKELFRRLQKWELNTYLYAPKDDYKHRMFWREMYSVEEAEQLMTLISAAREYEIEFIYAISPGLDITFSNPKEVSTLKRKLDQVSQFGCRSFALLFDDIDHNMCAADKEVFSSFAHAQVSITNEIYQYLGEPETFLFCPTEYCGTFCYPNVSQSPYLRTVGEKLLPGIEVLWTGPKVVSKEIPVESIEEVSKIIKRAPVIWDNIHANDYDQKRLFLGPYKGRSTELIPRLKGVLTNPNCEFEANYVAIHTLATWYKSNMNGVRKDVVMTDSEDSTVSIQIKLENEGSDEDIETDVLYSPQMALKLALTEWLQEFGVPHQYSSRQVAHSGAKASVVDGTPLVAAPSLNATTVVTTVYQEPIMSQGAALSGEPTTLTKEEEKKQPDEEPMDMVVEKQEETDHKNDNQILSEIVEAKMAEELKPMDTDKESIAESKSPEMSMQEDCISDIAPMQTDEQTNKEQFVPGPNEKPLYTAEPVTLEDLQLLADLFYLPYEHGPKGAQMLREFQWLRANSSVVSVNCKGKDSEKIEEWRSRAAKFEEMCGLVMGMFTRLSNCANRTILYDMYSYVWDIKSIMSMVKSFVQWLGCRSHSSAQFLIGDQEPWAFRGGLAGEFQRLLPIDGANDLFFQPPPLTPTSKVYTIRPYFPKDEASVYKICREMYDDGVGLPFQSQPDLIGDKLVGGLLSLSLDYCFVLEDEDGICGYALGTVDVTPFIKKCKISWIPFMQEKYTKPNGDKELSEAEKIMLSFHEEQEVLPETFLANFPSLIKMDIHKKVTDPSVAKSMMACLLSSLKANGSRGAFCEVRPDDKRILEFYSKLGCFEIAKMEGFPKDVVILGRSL
Kind of data set: OGA biochemical assay (inhibition of FM-GlcNAc hydrolysis, fluorescence). To be noted: FM-GlcNAc substrate; for Emax: read-out: Enzymatic Emax (%); for IC50: read-out: Enzymatic hOGA, pIC50 (converted). The gist of the method:
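Full-length recombinant human OGA (2 nM) pre-incubated 60 min with compound, then FM-GlcNAc (100 uM final) added in 200 mM citrate/phosphate pH 7.2 with 0.005% Tween-20; 6 h at room temperature, stopped with pH 11.0 carbonate. Fluorescein read at ex 485/em 538 nm; IC50 and Hill coefficient from curve fit against no-inhibitor and saturating-standard controls.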

Another data set deals with T2, OGA (Homo sapiens, UniProt O60502).
T2 construct: endogenous in cells; host or cells: HEK293 cells inducible for P301L mutant human Tau (isoform 2N4R)
T2 sequence (O60502 1-916): T1 sequence (O60502 1-916)
The data set can be described thus: OGA cellular assay (ICC detection of O-GlcNAcylated proteins in HEK293 cells inducible for P301L mutant human Tau). Conditions: 6 hours incubation; for Emax: HEK293, HEK293 cells inducible for P301L mutant human Tau, maximum = Thiamet G 200 uM; for EC50: HEK293 cells inducible for P301L mutant human Tau, read-out: Cellular hOGA, pEC50 (converted). The data set is classed as cell-based. The gist of the method: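 HEK293 cells inducible for P301L Tau (2N4R), seeded in low-glucose medium, treated 6 hours with compound (0.2% DMSO). O-GlcNAcylated proteins detected by CTD110.6 immunocytochemistry, imaged at 488 nm, nuclei counted with Hoechst; values from non-linear regression against 200 uM Thiamet G as maximum.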

Structures can show the parent of a compound that is named as a salt.

Turning to `CC(=O)Nc1cc(CN2CCCC(COc3cc(C)nc(C)c3)C2)n[nH]1` (centres unmarked) (as salt: hydrochloric acid salt) [Product 119], the melting point – broadly, the temperature, or range, at which the solid turns liquid – turned out to be 192.2 °C.

`CC(=O)Nc1cc(C(C)N2CCC[C@H](Cc3cc(C)nc(C)c3)C2)cnc1C` (mixture of isomers) (as salt: HCl) [Product 33] registered a melting point of 147.5 °C.

As to `CCC(=O)Nc1cncc(C(C)N2CCC[C@H](Cc3cc(C)nc(C)c3)C2)c1` (mixture of isomers) (as salt: HCl) [Product 38], the melting point turned out to be 188.1 °C.

As to `CNC(=O)c1cncc(C(C)N2CCC[C@H](Cc3cc(C)nc(C)c3)C2)c1` (mixture of isomers) (as salt: HCl) [Product 40], the melting point turned out to be 251.2 °C.

Compound `COc1cncc(C(C)N2CCC[C@H](Cc3cc(C)nc(C)c3)C2)c1` (mixture of isomers) (as salt: HCl) [Product 43] came in with a melting point of 161.4 °C.

In turn, `CCOc1cncc(C(C)N2CCC[C@H](Cc3cc(C)nc(C)c3)C2)c1` (mixture of isomers) (as salt: HCl) [Product 44] registered a melting point of 138 °C.

As for `COc1cc(NC[C@H]2CCCN(C(C)c3nc(OC)ccc3F)C2)cc(C)n1` (mixture of isomers) (as salt: HCl) [Product 90], the melting point came out at 151.3 °C.

`CCOc1cc(CN2CCC[C@H](Cc3cc(C)nc(C)c3)C2)n[nH]1` [Product 14] gave a melting point of 112.89 °C. In addition, in data set [1], the Emax (in general, the size of the effect at its maximum, as opposed to the concentration needed) came out at 81% and the IC50 is 2750 nM.

Regarding `CC(=O)Nc1cnc(C(C)N2CCC[C@H](Cc3cc(C)nc(C)c3)C2)cn1` (some centres unmarked) [Product 64], the melting point is 211.6 °C. Further, in data set [1], the Emax worked out at 95% and the IC50 was 692 nM. Moreover, on OGA, the Emax was determined as 26% and the EC50 was > 1000 nM.

As for `CC(=O)Nc1cc(C(C)N2CCCC(c3cc(C)nc(C)c3)C2)n[nH]1` (centres unmarked) [Product 72], the melting point is 184.68 °C. Besides, in data set [1], the Emax turned out to be 97% and the IC50 was 457 nM. Moreover, on OGA, the Emax is 31% and the EC50 is > 1000 nM.

Consider `CC(=O)Nc1cc(C(C)N2CCCC(CNc3cc(C)nc(C(F)(F)F)c3)C2)[nH]n1` (centres unmarked) [Product 91], for which the melting point was determined as 261.7 °C. Besides, in data set [1], the maximal response (Emax) came to 104% and the IC50 was 129 nM.

`CC(=O)Nc1ncc(CN2CCC[C@H](Cc3cc(C)nc(C)c3)C2)nc1C.Cl` [Product 158]: the melting point turned out to be 158.1 °C. For the same compound, in data set [1], the Emax is 13% and the IC50 was > 10000 nM.

(Values after patent US20210300900A1, “OGA INHIBITOR COMPOUNDS” (Janssen Pharmaceutica NV, priority 2018, published 2021).)
